This note sets out measurements from US9624184B2, “Heterocyclic compound” (TAKEDA PHARMACEUTICAL COMPANY LIMITED, priority 2013, dated 2017).

T1 sequence (Q9Y6A2 whole entry): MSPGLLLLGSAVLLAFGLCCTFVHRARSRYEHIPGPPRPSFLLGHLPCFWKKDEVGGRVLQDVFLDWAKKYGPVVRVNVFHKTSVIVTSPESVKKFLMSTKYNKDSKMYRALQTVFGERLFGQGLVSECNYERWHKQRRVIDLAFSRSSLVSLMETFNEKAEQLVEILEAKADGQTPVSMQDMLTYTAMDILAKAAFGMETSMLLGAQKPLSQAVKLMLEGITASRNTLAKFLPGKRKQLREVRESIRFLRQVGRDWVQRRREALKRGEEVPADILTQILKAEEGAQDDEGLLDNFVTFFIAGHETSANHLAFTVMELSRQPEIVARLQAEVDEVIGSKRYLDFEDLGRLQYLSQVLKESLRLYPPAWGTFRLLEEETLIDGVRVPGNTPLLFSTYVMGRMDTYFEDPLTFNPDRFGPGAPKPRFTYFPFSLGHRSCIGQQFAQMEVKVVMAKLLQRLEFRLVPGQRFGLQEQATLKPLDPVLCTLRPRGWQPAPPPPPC

One experiment addresses T1, human CH24H (Homo sapiens, UniProt Q9Y6A2).
T1 construct: Using Full-Length Mammalian Gene Collection No. 4819975 (Invitrogen) as a template; made in house; host or cells: FreeStyle 293-F cells (transient transfection with pcDNA3.1(+)/hCH24H); cell lysate supernatant
Nature of the experiment: Measurement of CH24H inhibitory activity (24-HC produced from [14C] cholesterol by human CH24H lysate). To be noted: 1 μM test compound, [14C] cholesterol 15 μM, 37° C. for 5 hr, read-out: Inhibitory Rate in 1 μM (%). Format: biochemical. On the procedure: A plasmid DNA for expressing human CH24H in a FreeStyle 293 cell was produced as follows. Using Full-Length Mammalian Gene Collection No. 4819975 (Invitrogen) as a template, and the following two kinds of synthesized DNAs: 5′-[…]-3′ (SEQ ID NO: 1) and 5′-[…]-3′ (SEQ ID NO: 2), PCR was performed to amplify 91-1625 bp region of human CH24H (BC022539). The obtained fragment was cloned using TOPO TA Cloning Kit (Invitrogen). The obtained fragment was subcloned to pcDNA3.1(+) digested with BamHI and XhoI to give a plasmid DNA for human CH24H expression (pcDNA3.1(+)/hCH24H).
The expression of human CH24H was performed using FreeStyle 293 Expression System (Invitrogen). According to the manual attached to FreeStyle 293 Expression System and using the plasmid DNA for human CH24H expression (pcDNA3.1(+)/hCH24H) constructed in Experimental Example 1, a transient expression using FreeStyle 293-F cell was performed. After transfection, the cells were cultured at 37° C., 8% CO2 with shaking at 125 rpm for 2 days. The cells were collected by centrifugation, and suspended in a suspension buffer (100 mM potassium phosphate (pH 7.4), 0.1 mM EDTA, 1 mM DTT, 20% Glycerol). The suspended product was disrupted by a polytron homogenizer (manufactured by Kinematica), and centrifuged at 9000×g for 10 min, and the supernatant was collected. The collected supernatant was cryopreserved (−80° C.) as a human CH24H lysate standard product.
For the measurement of CH24H inhibitory activity, using the human CH24H lysate prepared in Experimental Example 2, the amount of 24-HC produced from cholesterol by catalytic activity of CH24H was measured in the presence of a test compound, and compared with that measured in the absence of the test compound. That is, a test compound solution at various concentrations was mixed with a reaction buffer (50 mM potassium phosphate containing 0.1% BSA and Complete, EDTA-free, pH 7.4) and human CH24H lysate. Then, [^14C] cholesterol (53 mCi/mmol specific activity, 15 μM) was added, and CH24H reaction was performed at 37° C. for 5 hr. After completion of the reaction, a quenching solution consisting of chloroform/methanol/distilled water (2:2:1 v/v) was added, and the resulting 24-HC was extracted by shaking. The extract was applied to silica gel thin layer chromatography (ethyl acetate:toluene=4:6), and the obtained ^14C-24HC fraction was measured with BAS2500 (Fujifilm Corporation).
The inhibitory rate (%) was calculated from the ratio of radioactivity in the presence of a test compound relative to the radioactivity in the absence of the test compound.
As to `O=C(Nc1cc(-c2cnco2)cc(C(F)(F)F)c1)c1cccc(Cl)c1` [Example 1, 3-chloro-N-(3-(1,3-oxazol-5-yl)-5-(trifluoromethyl)phenyl)benzamide], the inhibition at 1 µM was 89%.
On to `CC(C)c1cc(NS(=O)(=O)c2cccc(Cl)c2)cc(-c2cnco2)c1` [Example 4, 3-chloro-N-(3-isopropyl-5-(1,3-oxazol-5-yl)phenyl)benzenesulfonamide], for which the inhibition at 1 µM came to 89%.
Still for that read-out and setting: then `O=C(Nc1cc(-c2cnco2)cc(C2CC2)c1)c1cccc(Cl)c1` [Example 5, 3-chloro-N-(3-cyclopropyl-5-(1,3-oxazol-5-yl)phenyl)benzamide], with 79%; and `O=S(=O)(Nc1cc2c(c(-c3cnco3)c1)OCC2)c1cccc(Cl)c1` [Example 10, 3-chloro-N-(7-(1,3-oxazol-5-yl)-2,3-dihydro-1-benzofuran-5-yl)benzenesulfonamide], with 83%; and `O=C(Nc1cc(-c2cnco2)cc(C(F)(F)F)c1)C1CC1` [Example 17, N-(3-(1,3-oxazol-5-yl)-5-(trifluoromethyl)phenyl) cyclopropanecarboxamide], with 89%.
Still for that read-out and setting: in the case of `O=C(Nc1cc(-c2cnco2)cc(C(F)F)c1)C1CC1` [Example 31, N-(3-(difluoromethyl)-5-(1,3-oxazol-5-yl)phenyl)cyclopropanecarboxamide] it was 90%.
Same read-out and setting: in the case of `O=C(C1CC1)N1CCc2c(-c3cnco3)cc(C(F)(F)F)cc21` [Example 36, cyclopropyl(4-(1,3-oxazol-5-yl)-6-(trifluoromethyl)-2,3-dihydro-1H-indol-1-yl)methanone] it was 92%.
For `O=C(Cn1ccnc1)Nc1cc(-c2cnco2)cc(C(F)(F)F)c1` [Example 43, 2-(1H-imidazol-1-yl)-N-(3-(1,3-oxazol-5-yl)-5-(trifluoromethyl)phenyl)acetamide], the inhibition at 1 µM came out at 90%.
Take `O=C(C1CC1)N1CCCOc2c(-c3cnco3)cc(C(F)(F)F)cc21` [Example 53, cyclopropyl(9-(1,3-oxazol-5-yl)-7-(trifluoromethyl)-3,4-dihydro-1,5-benzoxazepin-5(2H)-yl)methanone]: the inhibition at 1 µM is 52%.
Turning to `O=C(C1CC1)N1CCOc2c(-c3cnco3)cc(C(F)(F)F)cc21` [Example 54, cyclopropyl(8-(1,3-oxazol-5-yl)-6-(trifluoromethyl)-2,3-dihydro-4H-1,4-benzoxazin-4-yl)methanone], the inhibition at 1 µM was 92%.
The same measure, in the same setting: then `FC(F)(F)c1cc(NCc2ccccn2)cc(-c2cnco2)c1` [Example 56, 3-(1,3-oxazol-5-yl)-N-(pyridin-2-ylmethyl)-5-(trifluoromethyl)aniline], with 88%; and `O=C(Nc1cc2c(c(-c3cnco3)c1)OCC2)C1CC1` [Example 58, N-(7-(1,3-oxazol-5-yl)-2,3-dihydro-1-benzofuran-5-yl)cyclopropanecarboxamide], with 84%.
The same measure, in the same setting: in the case of `O=C(Nc1cc(C(F)(F)F)cc(-c2cnco2)n1)C1CC1` [Example 61, N-(6-(1,3-oxazol-5-yl)-4-(trifluoromethyl)pyridin-2-yl)cyclopropanecarboxamide] it was 88%; in that of `CC(C)C(=O)N1CCc2c(-c3cnco3)cc(C(F)(F)F)cc21` [Example 80, 2-methyl-1-(4-(1,3-oxazol-5-yl)-6-(trifluoromethyl)-2,3-dihydro-1H-indol-1-yl)propan-1-one], 91%; in that of `O=C(N1CCOCC1)N1CCc2c(-c3cnco3)cc(C(F)(F)F)cc21` [Example 83, morpholin-4-yl(4-(1,3-oxazol-5-yl)-6-(trifluoromethyl)-2,3-dihydro-1H-indol-1-yl)methanone], 92%.
As to `O=C(C1CCOCC1)N1CCc2c(-c3cnco3)cc(C(F)(F)F)cc21` [Example 87, (4-(1,3-oxazol-5-yl)-6-(trifluoromethyl)-2,3-dihydro-1H-indol-1-yl)(tetrahydro-2H-pyran-4-yl)methanone], the inhibition at 1 µM was 97%.
Still for that read-out and setting: then `FC1(F)CCN(c2cc(-c3cnco3)cc(C(F)(F)F)c2)CC1` [Example 89, 4,4-difluoro-1-(3-(1,3-oxazol-5-yl)-5-(trifluoromethyl)phenyl)piperidine], with 93%.
Same read-out and setting: in the case of `OC1(Cc2ccccc2)CCN(c2cc(-c3cnco3)cc(C(F)(F)F)c2)CC1` [Example 92, 4-benzyl-1-(3-(1,3-oxazol-5-yl)-5-(trifluoromethyl)phenyl)piperidin-4-ol] it was 89%.
Take `O[C@H]1CCN(c2cc(-c3cnco3)cc(C(F)(F)F)c2)C1` [Example 95, (3S)-1-(3-(1,3-oxazol-5-yl)-5-(trifluoromethyl)phenyl)pyrrolidin-3-ol]: the inhibition at 1 µM is 96%.
The same measure, in the same setting: then `OC1CCN(c2cc(C(F)(F)F)cc(-c3cnco3)n2)C1` (stereo not drawn) [Example 96, 1-(6-(1,3-oxazol-5-yl)-4-(trifluoromethyl)pyridin-2-yl)pyrrolidin-3-ol], with 91%.
`OC1CN(c2cc(-c3cnco3)cc(C(F)(F)F)c2)CCC1Cc1ccccc1` (stereo not drawn) [Example 100, 4-benzyl-1-(3-(1,3-oxazol-5-yl)-5-(trifluoromethyl)phenyl)piperidin-3-ol]: the inhibition at 1 µM worked out at 97%.
On the same count and under the same terms, then `CC(=O)N1CCN(c2cc(-c3cnco3)cc(C(F)(F)F)c2)CC1` [Example 107, 1-(4-(3-(1,3-oxazol-5-yl)-5-(trifluoromethyl)phenyl)piperazin-1-yl)ethanone], with 91%; and `CS(=O)(=O)NC1CCN(c2cc(-c3cnco3)cc(C(F)(F)F)c2)C1` (stereo not drawn) [Example 119, N-(1-(3-(1,3-oxazol-5-yl)-5-(trifluoromethyl)phenyl)pyrrolidin-3-yl)methanesulfonamide], with 95%.
With `CC1(C)CCN(c2cc(-c3cnco3)cc(C(F)(F)F)c2)C1=O` [Example 127, 3,3-dimethyl-1-(3-(1,3-oxazol-5-yl)-5-(trifluoromethyl)phenyl)pyrrolidin-2-one], the inhibition at 1 µM is 91%.
The same measure, in the same setting: then `O=C(N1CCc2c(-c3cnco3)cc(C(F)(F)F)cc21)N1C[C@@H]2C[C@H]1CO2` [Example 128, (1S,4S)-2-oxa-5-azabicyclo[2.2.1]hept-5-yl(4-(1,3-oxazol-5-yl)-6-(trifluoromethyl)-2,3-dihydro-1H-indol-1-yl)methanone], with 97%; and `CC1(C)CCN(c2cc(C(F)(F)F)cc(-c3cnco3)n2)C1=O` [Example 134, 3,3-dimethyl-1-(6-(1,3-ozazol-5-yl)-4-(trifluoromethyl)pyridin-2-yl)pyrrolidin-2-one], with 89%.

Another experiment concerns 24-HC in the brain. Put plainly: Quantification test of 24-HC in mouse brain after repeated oral administration. The class given is in vivo. As to conditions: 10 mg/kg orally once a day for 3 days; female C57BL/6N mice; brain 24-HC at 16 hours after the third administration; relative values with the control group as 100%. On the procedure: Animals used were 6-week-old female C57BL/6N mice (3 mice/group). A test compound was suspended in a 0.5% aqueous methylcellulose [133-14255 WAKO] solution (1 mg/mL). The body weight of the mice was measured, and the solution was forcibly administered orally and repeatedly once a day for 3 days. At 16 hours after the third administration, half of the brain was harvested, and the amount of 24-HC was measured.
The wet weight of the brain was measured, and the brain was homogenized with 4-fold amount of saline. This solution was used as a brain extract. The 24-HC in the brain extract was extracted with an acetonitrile solution (98% acetonitrile, 1.98% methanol, 0.02% formic acid), and quantified by HPLC. The average value of 24-HC amount was calculated and the results are shown in relative values with the control group as 100%.
Turning to `O=C(Nc1cc(-c2cnco2)cc(C(F)(F)F)c1)C1CC1` [Example 17, N-(3-(1,3-oxazol-5-yl)-5-(trifluoromethyl)phenyl) cyclopropanecarboxamide], the “Decreasing Rate in 10 mg/kg (%)” value was found to be 80%.
As to `O=C(C1CC1)N1CCc2c(-c3cnco3)cc(C(F)(F)F)cc21` [Example 36, cyclopropyl(4-(1,3-oxazol-5-yl)-6-(trifluoromethyl)-2,3-dihydro-1H-indol-1-yl)methanone], the “Decreasing Rate in 10 mg/kg (%)” value is given as 73%.

Staying with this experiment, now noted: 30 mg/kg orally once a day for 3 days; female C57BL/6N mice; brain 24-HC at 16 hours after the third administration; relative values with the control group as 100%.
Consider `O=C(C1CCOCC1)N1CCc2c(-c3cnco3)cc(C(F)(F)F)cc21` [Example 87, (4-(1,3-oxazol-5-yl)-6-(trifluoromethyl)-2,3-dihydro-1H-indol-1-yl)(tetrahydro-2H-pyran-4-yl)methanone], for which the “Decreasing Rate in 30 mg/kg (%)” value is reported as 56%.
Regarding `O[C@H]1CCN(c2cc(-c3cnco3)cc(C(F)(F)F)c2)C1` [Example 95, (3S)-1-(3-(1,3-oxazol-5-yl)-5-(trifluoromethyl)phenyl)pyrrolidin-3-ol], the “Decreasing Rate in 30 mg/kg (%)” value came out at 66%.
